Each structure is given as a SMILES string. Active and inactive are the calls of the source. No cut-off for these calls is given here.

Data set [1] addresses Urease subunit alpha/Urease subunit beta (Helicobacter pylori (strain ATCC 700392 / 26695) (Campylobacterpylori), UniProt P69996). As to the kind of experiment: (§1) Inhibition of Helicobacter pylori urease using urea as substrate assessed as decrease in ammonia production incubated for 0.5 hrs by indole phenol method. Type of data set: protein-complex assay.
Data set [2] can be described thus: Cytotoxicity against human L02 cells assessed as cell viability at 250 ug/ml incubated for 72 hrs by CCK8 assay relative to control. Type of data set: toxicity, cell-based. The conditions noted are these: at 250 µg/mL, read-out: Activity.
Data set [3] can be described thus: Cytotoxicity against human SGC-7901 cells assessed as cell viability at 250 ug/ml incubated for 72 hrs by CCK8 assay relative to control. The data set is classed as toxicity, cell-based. The following applies: at 250 µg/mL, read-out: Activity. In general terms: Tetrazolium dyes change colour on reduction, which living cells bring about.
The nature of data set [4]: Cytotoxicity against human HepG2 cells assessed as cell viability at 250 ug/ml incubated for 72 hrs by CCK8 assay relative to control. Type of data set: toxicity, cell-based. The following applies: at 250 µg/mL, read-out: Activity.
Data set [5] in a line: Cytotoxicity against human K562 cells assessed as cell viability at 250 ug/ml incubated for 72 hrs by CCK8 assay relative to control. The following applies: at 250 µg/mL, read-out: Activity. Type of data set: toxicity, cell-based.
Data set [6] has as its target T1, Urease subunit alpha/Urease subunit beta (Helicobacter pylori (strain ATCC 700392 / 26695) (Campylobacterpylori)) (UniProt P69996+P14916). As to the kind of experiment: Inhibition of urease using urea as substrate assessed as decrease in ammonia production at 800 ug/ml preincubated for 100 min by indole phenol method. The following applies: dose 800.0 µg/ml. The data set is classed as protein-complex assay.

Data set [7] addresses T1, Urease subunit alpha/Urease subunit beta (Helicobacter pylori (strain ATCC 700392 / 26695) (Campylobacterpylori)). As to the kind of experiment: Inhibition of urease using urea as substrate assessed as decrease in ammonia production at 800 ug/ml by indole phenol method. The data set is classed as protein-complex assay. The following applies: dose 800.0 µg/ml, time <= 120.0 min.

Data set [8] has the same target. Described as §1. The data set is classed as protein-complex assay.

T1 sequence (P14916 whole entry, looked up): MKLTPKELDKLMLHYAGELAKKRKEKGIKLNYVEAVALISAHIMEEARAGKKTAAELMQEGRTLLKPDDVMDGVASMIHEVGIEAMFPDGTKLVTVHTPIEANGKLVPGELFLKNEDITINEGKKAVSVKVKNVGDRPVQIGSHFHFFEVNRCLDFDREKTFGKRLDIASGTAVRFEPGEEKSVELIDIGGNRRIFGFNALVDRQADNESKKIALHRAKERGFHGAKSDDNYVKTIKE
T1 sequence (P69996 whole entry, looked up): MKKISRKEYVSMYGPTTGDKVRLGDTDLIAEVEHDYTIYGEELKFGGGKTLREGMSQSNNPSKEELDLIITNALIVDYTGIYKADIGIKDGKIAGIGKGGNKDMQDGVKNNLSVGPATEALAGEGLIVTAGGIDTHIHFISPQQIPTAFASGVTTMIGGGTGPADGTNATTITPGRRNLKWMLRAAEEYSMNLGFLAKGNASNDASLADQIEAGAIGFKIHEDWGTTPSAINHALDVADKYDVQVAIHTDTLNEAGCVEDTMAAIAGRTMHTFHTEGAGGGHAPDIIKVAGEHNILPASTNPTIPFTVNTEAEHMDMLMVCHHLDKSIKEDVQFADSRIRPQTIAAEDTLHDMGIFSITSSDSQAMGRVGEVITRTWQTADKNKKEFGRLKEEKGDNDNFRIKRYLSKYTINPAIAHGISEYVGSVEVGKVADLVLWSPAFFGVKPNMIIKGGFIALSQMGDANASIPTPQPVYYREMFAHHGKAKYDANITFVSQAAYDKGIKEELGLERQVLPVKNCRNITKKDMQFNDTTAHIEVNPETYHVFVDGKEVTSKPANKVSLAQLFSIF
Urease subunit alpha/Urease subunit beta, sequence (P69996 whole entry): as the sequence (P69996 whole entry, looked up) above
Urease subunit alpha/Urease subunit beta, sequence (P14916 whole entry, further chain): as the sequence (P14916 whole entry, looked up) above

A word on the IC50: it is the concentration that inhibits the measured activity by half. Take `CCOc1ccc(NCC(O)c2n[nH]c(=O)[nH]2)cc1` (configuration not stated): in data set [1], the 50% inhibitory concentration (IC50) came to 46.8 µM.

The term Ki denotes the equilibrium dissociation constant of an inhibitor or competing ligand from its target. In the case of `Cc1cc(C)cc(N2CC(Cc3n[nH]c(=O)o3)OC2=O)c1` (configuration not stated), the viability at 72 h, 250 ug/ml came to 98% in data set [2], 92.5% in data set [3], 90.8% in data set [4] and 92.7% in data set [5]. Moreover, in data set [1], the IC50 worked out at 10.1 µM. For the same molecule, the Ki in data set [1] turned out to be 6.75 µM.

With `Cc1cc(C)cc(NCC(O)c2n[nH]c(=O)[nH]2)c1` (configuration not stated), the IC50 in data set [1] is 30.7 µM.

For the molecule `O=c1[nH]nc(C(O)CNc2ccccc2)[nH]1` (configuration not stated), the IC50 in data set [1] amounted to 85.2 µM.

In the case of `CCc1ccc(NCC(O)c2n[nH]c(=O)[nH]2)cc1` (configuration not stated), the IC50 in data set [1] came to 110 µM.

Regarding `O=C1OC(Cc2n[nH]c(=O)o2)CN1c1ccccc1OCc1ccccc1` (configuration not stated), the viability at 72 h, 250 ug/ml stood at 96.5% in data set [2], 94.6% in data set [3], 91.5% in data set [4] and 93.8% in data set [5]. Besides, the IC50 in data set [1] was found to be 1.21 µM. Besides, in data set [1], the inhibition constant Ki came out at 0.24 µM. In addition, the inhibition result in data set [6] was “Active”. The inhibition result in data set [7] is “Dose-Dependent Effect”.

For the molecule `Cc1ccc(NCC(O)c2n[nH]c(=O)[nH]2)cc1` (configuration not stated), the inhibition result in data set [8] was “inactive”.

As to `Cc1ccccc1N1CC(c2n[nH]c(=O)o2)OC1=O` (configuration not stated), in data set [1], the half-inhibitory concentration (IC50) stood at 186 µM.

`CC(C)c1ccc(NCC(O)c2n[nH]c(=O)[nH]2)cc1` (configuration not stated): in data set [1], the IC50 turned out to be 51.4 µM.

Consider `Cc1cc(C)cc(N2CC(c3n[nH]c(=O)o3)OC2=O)c1` (configuration not stated), for which the inhibition entry in data set [8] was “inactive”.

For the molecule `O=C1OC(c2n[nH]c(=O)o2)CN1c1cccc(OCc2ccccc2)c1` (configuration not stated), the viability at 72 h, 250 ug/ml is 98.8% in data set [2], 87.6% in data set [3], 92.4% in data set [4] and 90.7% in data set [5]. Moreover, in data set [1], the IC50 stood at 20.7 µM.

As to `Cc1ccccc1NCC(O)c1n[nH]c(=O)[nH]1` (configuration not stated), in data set [1], the half-inhibitory concentration (IC50) amounted to 93.5 µM.

In the case of `CC(C)(C)c1ccc(NCC(O)c2n[nH]c(=O)[nH]2)cc1` (configuration not stated), the IC50 in data set [1] amounted to 40.2 µM.

Turning to `Cc1ccc(N2CC(Cc3n[nH]c(=O)o3)OC2=O)cc1` (configuration not stated), the inhibition result in data set [8] was “inactive”.

Turning to `O=C1OC(Cc2n[nH]c(=O)o2)CN1c1ccccc1` (configuration not stated), the half-maximal inhibitory concentration (IC50) in data set [1] was found to be 65.2 µM.

Consider `CC(C)(C)c1ccc(N2CC(Cc3n[nH]c(=O)o3)OC2=O)cc1` (configuration not stated), for which, in data set [1], the IC50 turned out to be 56.8 µM.

Turning to `COc1cccc(N2CC(c3n[nH]c(=O)o3)OC2=O)c1` (configuration not stated), the IC50 in data set [1] is 108 µM.

As to `Cc1cccc(N2CC(c3n[nH]c(=O)o3)OC2=O)c1` (configuration not stated), in data set [8], the inhibition entry was “inactive”.

Regarding `O=C1OC(c2n[nH]c(=O)o2)CN1c1ccccc1` (configuration not stated), in data set [8], the inhibition result is “inactive”.

Turning to `CCc1ccc(N2CC(c3n[nH]c(=O)o3)OC2=O)cc1` (configuration not stated), the IC50 in data set [1] worked out at 162 µM.

For the molecule `CCc1ccc(N2CC(Cc3n[nH]c(=O)o3)OC2=O)cc1` (configuration not stated), the IC50 in data set [1] came to 46.1 µM.

`Cc1ccc(N2CC(c3n[nH]c(=O)o3)OC2=O)c(C)c1` (configuration not stated): the IC50 in data set [1] is 98.7 µM.

Regarding `O=c1[nH]nc(C(O)CNc2cccc(OCc3ccccc3)c2)[nH]1` (configuration not stated), the viability at 72 h, 250 ug/ml in data set [2] was determined as 95.4%; in data set [3], 93.4%; in data set [4], 90.3%; in data set [5], 91.6%. Moreover, the 50% inhibitory concentration (IC50) in data set [1] is 6.31 µM. Moreover, the Ki in data set [1] is 2.24 µM.

For the molecule `COc1ccc(N2CC(c3n[nH]c(=O)o3)OC2=O)cc1` (configuration not stated), in data set [8], the inhibition result is “inactive”.

Regarding `CCc1cccc(NCC(O)c2n[nH]c(=O)[nH]2)c1` (configuration not stated), the half-inhibitory concentration (IC50) in data set [1] was determined as 90.5 µM.

`CCOc1ccc(N2CC(c3n[nH]c(=O)o3)OC2=O)cc1` (configuration not stated): the IC50 in data set [1] stood at 116 µM.

Regarding `CCOc1ccc(N2CC(Cc3n[nH]c(=O)o3)OC2=O)cc1` (configuration not stated), the concentration for half-maximal inhibition (IC50) in data set [1] worked out at 61.3 µM.

In the case of `O=c1[nH]nc(C(O)CNc2ccc(OCc3ccccc3)cc2)[nH]1` (configuration not stated), the viability at 72 h, 250 ug/ml worked out at 94.7% in data set [2], 94.2% in data set [3], 89.3% in data set [4] and 89.8% in data set [5]. For the same molecule, the half-maximal inhibitory concentration (IC50) in data set [1] is 21.2 µM.

Turning to `Cc1cccc(N2CC(Cc3n[nH]c(=O)o3)OC2=O)c1` (configuration not stated), the IC50 in data set [1] was found to be 30.6 µM.

For the molecule `Cc1ccc(N2CC(c3n[nH]c(=O)o3)OC2=O)cc1` (configuration not stated), in data set [8], the inhibition entry is “inactive”.

With `CCOc1ccccc1NCC(O)c1n[nH]c(=O)[nH]1` (configuration not stated), the IC50 in data set [1] is 38.8 µM.

Consider `CCc1ccccc1NCC(O)c1n[nH]c(=O)[nH]1` (configuration not stated), for which the IC50 in data set [1] was determined as 62.6 µM.

Regarding `CCc1ccccc1N1CC(c2n[nH]c(=O)o2)OC1=O` (configuration not stated), the IC50 in data set [1] is 102 µM.

Take `Cc1ccc(N2CC(Cc3n[nH]c(=O)o3)OC2=O)cc1C` (configuration not stated): the inhibition result in data set [8] is “inactive”.

For `CCc1cccc(N2CC(c3n[nH]c(=O)o3)OC2=O)c1` (configuration not stated), in data set [1], the half-maximal inhibitory concentration (IC50) turned out to be 151 µM.

Take `COc1cccc(NCC(O)c2n[nH]c(=O)[nH]2)c1` (configuration not stated): the inhibition result in data set [8] was “inactive”.

`O=C1OC(c2n[nH]c(=O)o2)CN1c1ccc(OCc2ccccc2)cc1` (configuration not stated): in data set [1], the half-maximal inhibitory concentration (IC50) was found to be 73.1 µM.

`COc1ccc(N2CC(Cc3n[nH]c(=O)o3)OC2=O)cc1` (configuration not stated): the inhibition entry in data set [8] is “inactive”.

Take `CCc1cccc(N2CC(Cc3n[nH]c(=O)o3)OC2=O)c1` (configuration not stated): the viability at 72 h, 250 ug/ml in data set [2] came out at 98.7%; in data set [3], 89.3%; in data set [4] it was 93.1%; in data set [5], 95.3%. Also, in data set [1], the IC50 came to 22.1 µM.

On to `Cc1cccc(NCC(O)c2n[nH]c(=O)[nH]2)c1` (configuration not stated), for which the IC50 in data set [1] worked out at 108 µM.

Take `CC(C)c1ccc(N2CC(Cc3n[nH]c(=O)o3)OC2=O)cc1` (configuration not stated): the viability at 72 h, 250 ug/ml in data set [2] worked out at 96.2%; in data set [3], 90.7%; in data set [4], 89.3%; in data set [5] it was 88.9%. The IC50 in data set [1] turned out to be 24.6 µM.

As to `O=C1OC(Cc2n[nH]c(=O)o2)CN1c1cccc(OCc2ccccc2)c1` (configuration not stated), the viability at 72 h, 250 ug/ml was found to be 94.9% in data set [2], 90.2% in data set [3], 94.2% in data set [4] and 90.5% in data set [5]. For the same molecule, the concentration for half-maximal inhibition (IC50) in data set [1] is 19.1 µM.

For the molecule `Cc1ccc(NCC(O)c2n[nH]c(=O)[nH]2)c(C)c1` (configuration not stated), in data set [1], the IC50 is 87.5 µM.

Turning to `O=C1OC(Cc2n[nH]c(=O)o2)CN1c1ccc(OCc2ccccc2)cc1` (configuration not stated), in data set [1], the IC50 was 45.7 µM.

Take `COc1ccc(NCC(O)c2n[nH]c(=O)[nH]2)cc1` (configuration not stated): the inhibition result in data set [8] was “inactive”.

For the origin of these results see ChEMBL document CHEMBL5550092, “Synthesis and biological evaluation of triazolones/oxadiazolones as novel urease inhibitors” (Bioorg Med Chem, 2024).
